Literature values as cited in patent US20230066204A1 (OYE Therapeutics, Inc, priority 2019, published 2023).

Test system: rat
Conditions: administered intravenously

SMILES: Cn1c(=O)c2c(ncn2C)n(C)c1=O [Caffeine]
- accelerating emergence from anesthesia: effective in accelerating emergence from anesthesia
